How the values were obtained:
male Wister albino rats = experiment: Electrocardiograph studies (hypodynamic heart), aconitine-induced arrhythmia in anaesthetized rats; type: in vivo; settings: aconitine 50 μg/100 g infused through the jugular vein
Procedure: Electrocardiograph studies were conducted on urethane (1.75 g/kg, i.p) anaesthetized male Wister albino rats (150±10 g). Recordings were obtained in lead II. Aconitine (50 μg/100 g) was infused through the jugular vein and arrhythmia was induced within 30±5 mins.

[1] = tested on: isolated guineapig auricle; experiment: Aconitine-induced arrhythmia in isolated guineapig auricle; settings: aconitine 15 ng/ml
Procedure: Isolated guineapig auricle was prepared after Burn J H (1952). Aconitine (15 ng/ml) when added, set up arrhythmia within (40±5) mins. This novel compound (5 ng/ml) could revert arrhythmia to normal within (45±4.2) mins. The normal functioning state was maintained, observed up to 6 hrs. Again, arrhythmia was set in isolated auricle with 2.25 mM CaCl2. Arrhythmia was reverted to normal with the novel compound (5 ng/ml) within (30±3.36) mins of observation.

For `CCN1C[C@]2(COC)[C@H](O)C[C@H](OC)[C@@]34[C@@H]5C[C@@]6(O)[C@H](OC(=O)c7ccccc7)[C@@H]5[C@@](OC(C)=O)([C@@H]([C@H](OC)[C@H]23)[C@@H]14)[C@@H](O)[C@@H]6OC` [Aconitine], the “time to induction of arrhythmia” value (male Wister albino rats) was ≤ 30 ± 5 min and the “time to set up arrhythmia” value [1] was ≤ 40 ± 5 min.
